From ChEMBL document CHEMBL3217482, “Synthesis and biological evaluation of novel 1-aryl, 5-(phenoxy-substituted)aryl-1,4-pentadien-3-one derivatives” (Medchemcomm, 2011)

Key:
Bcap37 [1] = assay: Antiproliferative against human Bcap37 cells assessed as growth inhibition after 72 hrs by MTT assay; format: functional, cell-based; details: Bcap37, 72 h
Bcap37 [2] = assay: Antiproliferative against human Bcap37 cells assessed as growth inhibition at 1 uM after 72 hrs by MTT assay relative to control; format: functional; details: Bcap37, 72 h, read-out: GI
PC-3 [3] = assay: Antiproliferative against human PC3 cells assessed as growth inhibition at 1 uM after 72 hrs by MTT assay relative to control; format: functional; details: PC-3, 72 h, read-out: GI
[4] = Antiproliferative against human BGC823 cells assessed as growth inhibition after 72 hrs by MTT assay; format: functional, cell-based; details: BGC-823, 72 h
[5] = Antiproliferative against human BGC823 cells assessed as growth inhibition at 1 uM after 72 hrs by MTT assay relative to control; format: functional; details: BGC-823, 72 h, read-out: GI
[6] = Antiproliferative against human BGC823 cells assessed as growth inhibition at 10 uM after 72 hrs by MTT assay relative to control; format: functional; details: BGC-823, 72 h, read-out: GI
Bcap37 [7] = assay: Antiproliferative against human Bcap37 cells assessed as growth inhibition at 10 uM after 72 hrs by MTT assay relative to control; format: functional; details: Bcap37, 72 h, read-out: GI
PC-3 [8] = assay: Antiproliferative against human PC3 cells assessed as growth inhibition at 10 uM after 72 hrs by MTT assay relative to control; format: functional; details: PC-3, 72 h, read-out: GI

COc1cccc2c1C(=O)c1c(O)c3c(c(O)c1C2=O)C[C@@](O)(C(=O)CO)C[C@@H]3O[C@H]1C[C@H](N)[C@H](O)[C@H](C)O1 [DOXORUBICIN]
IC50 (Bcap37 [1]): 2000 nM | inhibition of growth at 1 µM (Bcap37 [2]): 84.2% | inhibition of growth at 1 µM (PC-3 [3]): 88.2% | IC50 [4]: 2600 nM | inhibition of growth at 1 µM [5]: 90.7% | inhibition of growth at 10 µM [6]: 95.9% | inhibition of growth at 10 µM (Bcap37 [7]): 93.1% | inhibition of growth at 10 µM (PC-3 [8]): 94.7%

CC[C@@]1(O)C(=O)OCc2c1cc1n(c2=O)Cc2cc3cc(O)ccc3nc2-1 [HYDROXYCAMPTOTHECIN]
inhibition of growth at 1 µM (Bcap37 [2]): 8.8% | inhibition of growth at 1 µM (PC-3 [3]): 17.1% | inhibition of growth at 1 µM [5]: 7.3% | inhibition of growth at 10 µM [6]: 26.5% | inhibition of growth at 10 µM (Bcap37 [7]): 33.5% | inhibition of growth at 10 µM (PC-3 [8]): 37%
